How the values were obtained:
Capivasertib = compound: C1CN(CCC1(C(=O)N[C@@H](CCO)C2=CC=C(C=C2)Cl)N)C3=NC=NC4=C3C=CN4 [Capivasertib]; details: max 10 µM
Procedure, shortened: (§1)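 In 1536-well plates, cancer cell lines in 7.5 μl DMEM/F12 or RPMI with 10% FBS spent 24 hours at 37°C and 5% CO2 and were then dosed for 72 hours with final DMSO typically 0.2%. Viability was read by CellTiter-Glo 2.0 luminescence and scaled between blank-well and DMSO-well means. The single-agent IC50 was fitted from dose responses using a logistic curve in a non-linear mixed effects model, and that logistic curve had two parameters.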

AZD1775 = compound: C=CCn1c(=O)c2cnc(Nc3ccc(N4CCN(C)CC4)cc3)nc2n1-c1cccc(C(C)(C)O)n1 [AZD1775]; details: max 3 µM
Procedure, shortened: as §1

Trametinib = compound: CC(=O)Nc1cccc(-n2c(=O)n(C3CC3)c(=O)c3c(Nc4ccc(I)cc4F)n(C)c(=O)c(C)c32)c1 [Trametinib]; details: max 1 µM
Procedure, shortened: as §1

Palbociclib = compound: CC(=O)c1c(C)c2cnc(Nc3ccc(N4CCNCC4)cn3)nc2n(C2CCCC2)c1=O [Palbociclib]; details: max 10 µM
Procedure, shortened: as §1

AZD1390 = compound: CC(C)n1c(=O)n(C)c2cnc3cc(F)c(-c4ccc(OCCCN5CCCCC5)nc4)cc3c21 [AZD1390]; details: max 0.3 µM
Procedure, shortened: as §1

Venetoclax = compound: CC1(C)CCC(CN2CCN(c3ccc(C(=O)NS(=O)(=O)c4ccc(NCC5CCOCC5)c([N+](=O)[O-])c4)c(Oc4cnc5[nH]ccc5c4)c3)CC2)=C(c2ccc(Cl)cc2)C1 [Venetoclax]; details: max 1 µM
Procedure, shortened: as §1

Dasatinib = compound: CC1=C(C(=CC=C1)Cl)NC(=O)C2=CN=C(S2)NC3=CC(=NC(=N3)C)N4CCN(CC4)CCO [Dasatinib]; details: max 2 µM
Procedure, shortened: as §1

SG3199 = compound: CC1=CN2[C@@H](C1)C=NC3=CC(=C(C=C3C2=O)OC)OCCCCCOC4=C(C=C5C(=C4)N=C[C@@H]6CC(=CN6C5=O)C)OC [SG3199]; details: max 0.001 µM
Procedure, shortened: as §1

AZD2811 = compound: CCN(CCO)CCCOc1ccc2c(Nc3cc(CC(=O)Nc4cccc(F)c4)[nH]n3)ncnc2c1 [AZD2811]; details: max 1 µM
Procedure, shortened: as §1

SN-38 = compound: CCc1c2c(nc3ccc(O)cc13)-c1cc3c(c(=O)n1C2)COC(=O)[C@]3(O)CC [SN-38]; details: max 0.3 µM
Procedure, shortened: as §1

AZD0156 = compound: CN(C)CCCOc1ccc(-c2ccc3ncc4c(c3c2)n(C2CCOCC2)c(=O)n4C)cn1 [AZD0156]; details: max 3 µM
Procedure, shortened: as §1

AZD4320 = compound: CN(CC[C@H](CSC1=CC=CC=C1)NC2=C(C=C(C=C2)S(=O)(=O)NC(=O)C3=CC=C(C=C3)N4CCC(CC4)[C@H](C5=CC=CC=C5C6=CC=C(C=C6)Cl)O)S(=O)(=O)C(F)(F)F)CCO [AZD4320]; details: max 1 µM
Procedure, shortened: as §1

Alisertib = compound: COc1cc(Nc2ncc3c(n2)-c2ccc(Cl)cc2C(c2c(F)cccc2OC)=NC3)ccc1C(=O)O [Alisertib]; details: max 10 µM
Procedure, shortened: as §1

Gefitinib = compound: COc1cc2ncnc(Nc3ccc(F)c(Cl)c3)c2cc1OCCCN1CCOCC1 [Gefitinib]; details: max 10 µM
Procedure, shortened: as §1

Prexasertib = compound: COc1cccc(OCCCN)c1-c1cc(Nc2cnc(C#N)cn2)n[nH]1 [Prexasertib]; details: max 1 µM
Procedure, shortened: as §1

Doxorubicin = compound: COc1cccc2c1C(=O)c1c(O)c3c(c(O)c1C2=O)C[C@@](O)(C(=O)CO)C[C@@H]3O[C@H]1C[C@H](N)[C@H](O)[C@H](C)O1 [Doxorubicin]; details: max 1 µM
Procedure, shortened: as §1

AZD5153 = compound: COc1nnc2ccc(N3CCC(c4ccc(OCCN5CCN(C)C(=O)[C@H]5C)cc4)CC3)nn12 [AZD5153]; details: max 1 µM
Procedure, shortened: as §1

Lapatinib = compound: CS(=O)(=O)CCNCc1ccc(-c2ccc3ncnc(Nc4ccc(OCc5cccc(F)c5)c(Cl)c4)c3c2)o1 [Lapatinib]; details: max 10 µM
Procedure, shortened: as §1

AZD8186 = compound: C[C@@H](Nc1cc(F)cc(F)c1)c1cc(C(=O)N(C)C)cc2c(=O)cc(N3CCOCC3)oc12 [AZD8186]; details: max 3 µM
Procedure, shortened: as §1

Crizotinib = compound: C[C@@H](Oc1cc(-c2cnn(C3CCNCC3)c2)cnc1N)c1c(Cl)ccc(F)c1Cl [Crizotinib]; details: max 10 µM
Procedure, shortened: as §1

Savolitinib = compound: C[C@@H](c1ccc2nccn2c1)n1nnc2ncc(-c3cnn(C)c3)nc21 [Savolitinib]; details: max 1 µM
Procedure, shortened: as §1

AZD6738 = compound: C[C@@H]1COCCN1C2=NC(=NC(=C2)C3(CC3)[S@](=N)(=O)C)C4=C5C=CNC5=NC=C4 [AZD6738]; details: max 10 µM
Procedure, shortened: as §1

AZD5991 = compound: Cc1c2c(nn1C)CSCc1cc(n(C)n1)CSc1cc(c3ccccc3c1)OCCCc1c(C(=O)O)n(C)c3c-2c(Cl)ccc13 [AZD5991]; details: max 1 µM
Procedure, shortened: as §1

AZD7648 = compound: Cc1cc2ncnn2cc1Nc1ncc2c(n1)n(C1CCOCC1)c(=O)n2C [AZD7648]; details: max 10 µM
Procedure, shortened: as §1

Taselisib = compound: Cc1nc(-c2cn3c(n2)-c2ccc(-c4cnn(C(C)(C)C(N)=O)c4)cc2OCC3)n(C(C)C)n1 [Taselisib]; details: max 10 µM
Procedure, shortened: as §1

Selumetinib = compound: Cn1cnc2c(F)c(Nc3ccc(Br)cc3Cl)c(C(=O)NOCCO)cc21 [Selumetinib]; details: max 10 µM
Procedure, shortened: as §1

MK-2206 = compound: NC1(c2ccc(-c3nc4ccn5c(=O)[nH]nc5c4cc3-c3ccccc3)cc2)CCC1 [MK-2206]; details: max 10 µM
Procedure, shortened: as §1

Olaparib = compound: O=C(c1cc(Cc2n[nH]c(=O)c3ccccc23)ccc1F)N1CCN(C(=O)C2CC2)CC1 [Olaparib]; details: max 10 µM
Procedure, shortened: as §1

| Cell Line | IC50, cell viability 72 h (Capivasertib) | IC50, cell viability 72 h (AZD1775) | IC50, cell viability 72 h (Trametinib) | IC50, cell viability 72 h (Palbociclib) | IC50, cell viability 72 h (AZD1390) | IC50, cell viability 72 h (Venetoclax) | IC50, cell viability 72 h (Dasatinib) | IC50, cell viability 72 h (SG3199) | IC50, cell viability 72 h (AZD2811) | IC50, cell viability 72 h (SN-38) | IC50, cell viability 72 h (AZD0156) | IC50, cell viability 72 h (AZD4320) | IC50, cell viability 72 h (Alisertib) | IC50, cell viability 72 h (Gefitinib) | IC50, cell viability 72 h (Prexasertib) | IC50, cell viability 72 h (Doxorubicin) | IC50, cell viability 72 h (AZD5153) | IC50, cell viability 72 h (Lapatinib) | IC50, cell viability 72 h (AZD8186) | IC50, cell viability 72 h (Crizotinib) | IC50, cell viability 72 h (Savolitinib) | IC50, cell viability 72 h (AZD6738) | IC50, cell viability 72 h (AZD5991) | IC50, cell viability 72 h (AZD7648) | IC50, cell viability 72 h (Taselisib) | IC50, cell viability 72 h (Selumetinib) | IC50, cell viability 72 h (MK-2206) | IC50, cell viability 72 h (Olaparib) |
| --- | --- | --- | --- | --- | --- | --- | --- | --- | --- | --- | --- | --- | --- | --- | --- | --- | --- | --- | --- | --- | --- | --- | --- | --- | --- | --- | --- | --- |
| B-CPAP (Thyroid Gland Carcinoma) | > 10000 nM | 1420 nM | > 1000 nM | > 10000 nM | > 300 nM | > 1000 nM | 324 nM | > 1 nM | > 1000 nM | 25 nM | > 3000 nM | > 1000 nM | 6620 nM | > 10000 nM | 149 nM | 608 nM | 379 nM | > 10000 nM | > 3000 nM | > 10000 nM | > 1000 nM | > 10000 nM | > 1000 nM | > 10000 nM | > 10000 nM | > 10000 nM | > 10000 nM | > 10000 nM |
| Daoy (Other Solid Carcinomas) | > 10000 nM | 398 nM | > 1000 nM | > 10000 nM | > 300 nM | > 1000 nM | > 2000 nM | > 1 nM | > 1000 nM | 4.44 nM | > 3000 nM | > 1000 nM | 818 nM | > 10000 nM | 46.7 nM | 141 nM | 489 nM | > 10000 nM | > 3000 nM | > 10000 nM | > 1000 nM | 3180 nM | > 1000 nM | > 10000 nM | 4730 nM | > 10000 nM | – | > 10000 nM |
| EC-GI-10 (Esophageal Squamous Cell Carcinoma) | > 10000 nM | 516 nM | 283 nM | > 10000 nM | > 300 nM | > 1000 nM | > 2000 nM | > 1 nM | > 1000 nM | 17.4 nM | > 3000 nM | > 1000 nM | 9240 nM | 3700 nM | 171 nM | > 1000 nM | > 1000 nM | 770 nM | > 3000 nM | > 10000 nM | > 1000 nM | 8220 nM | > 1000 nM | > 10000 nM | 496 nM | > 10000 nM | – | > 10000 nM |
| ES4 (Ewing's Sarcoma) | > 10000 nM | > 3000 nM | > 1000 nM | > 10000 nM | > 300 nM | > 1000 nM | > 2000 nM | > 1 nM | > 1000 nM | 8.83 nM | > 3000 nM | > 1000 nM | > 10000 nM | > 10000 nM | 24.3 nM | 431 nM | 246 nM | > 10000 nM | > 3000 nM | > 10000 nM | > 1000 nM | 2030 nM | > 1000 nM | > 10000 nM | 3240 nM | > 10000 nM | – | > 10000 nM |
| HCC1806 (Breast Carcinoma) | > 10000 nM | 271 nM | > 1000 nM | > 10000 nM | > 300 nM | > 1000 nM | 414 nM | > 1 nM | > 1000 nM | 12.1 nM | > 3000 nM | > 1000 nM | > 10000 nM | > 10000 nM | 6.18 nM | 258 nM | 301 nM | 6200 nM | > 3000 nM | 9230 nM | > 1000 nM | 1080 nM | > 1000 nM | > 10000 nM | 7680 nM | > 10000 nM | > 10000 nM | > 10000 nM |
| HuP-T4 (Pancreatic Carcinoma) | > 10000 nM | 1000 nM | > 1000 nM | > 10000 nM | > 300 nM | > 1000 nM | > 2000 nM | > 1 nM | > 1000 nM | 8.7 nM | > 3000 nM | > 1000 nM | > 10000 nM | > 10000 nM | 175 nM | 946 nM | > 1000 nM | > 10000 nM | > 3000 nM | > 10000 nM | > 1000 nM | > 10000 nM | > 1000 nM | > 10000 nM | > 10000 nM | > 10000 nM | – | > 10000 nM |
| KP-1N (Pancreatic Carcinoma) | > 10000 nM | > 3000 nM | > 1000 nM | > 10000 nM | > 300 nM | > 1000 nM | > 2000 nM | > 1 nM | > 1000 nM | > 300 nM | > 3000 nM | > 1000 nM | > 10000 nM | > 10000 nM | > 1000 nM | > 1000 nM | > 1000 nM | > 10000 nM | > 3000 nM | > 10000 nM | > 1000 nM | > 10000 nM | > 1000 nM | > 10000 nM | > 10000 nM | > 10000 nM | – | > 10000 nM |
| KYSE-520 (Esophageal Squamous Cell Carcinoma) | > 10000 nM | > 3000 nM | 181 nM | > 10000 nM | > 300 nM | > 1000 nM | 233 nM | > 1 nM | > 1000 nM | > 300 nM | > 3000 nM | > 1000 nM | > 10000 nM | 3920 nM | 116 nM | > 1000 nM | 278 nM | 3080 nM | > 3000 nM | > 10000 nM | > 1000 nM | > 10000 nM | > 1000 nM | > 10000 nM | 1250 nM | > 10000 nM | – | > 10000 nM |
